From PubChem BioAssay (NCI)
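Growth conditions: 96-well plates. Treatment: test compound, 48 hours, 5 concentrations. Analysis: linear interpolation between bracketing concentrations; unreached endpoints set to highest concentration. TGI marks complete inhibition of growth.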

Columns and labels:
Experiment in all cases: NCI anticancer screen, dose series, 48 h
T-47D breast = system: T-47D breast
RPMI-8226 leukemia = system: RPMI-8226 leukemia
DU-145 prostate = system: DU-145 prostate
NCI-H460 lung = system: NCI-H460 lung
TK-10 renal = system: TK-10 renal
786-0 renal = system: 786-0 renal
SF-268 CNS = system: SF-268 CNS
MDA-MB-435 = system: MDA-MB-435
SF-295 CNS = system: SF-295 CNS
HS 578T breast = system: HS 578T breast
UO-31 renal = system: UO-31 renal
SK-MEL-2 melanoma = system: SK-MEL-2 melanoma
HL-60(TB) leukemia = system: HL-60(TB) leukemia
SK-MEL-5 melanoma = system: SK-MEL-5 melanoma
SW-620 colon = system: SW-620 colon
BT-549 breast = system: BT-549 breast
HOP-62 NSCLC = system: HOP-62 NSCLC
LOX IMVI melanoma = system: LOX IMVI melanoma
HT29 colon = system: HT29 colon
SR leukemia = system: SR leukemia

| Compound | TGI (T-47D breast) [µM] | TGI (RPMI-8226 leukemia) [µM] | TGI (DU-145 prostate) [µM] | TGI (NCI-H460 lung) [µM] | TGI (TK-10 renal) [µM] | TGI (786-0 renal) [µM] | TGI (SF-268 CNS) [µM] | TGI (MDA-MB-435) [µM] | TGI (SF-295 CNS) [µM] | TGI (HS 578T breast) [µM] | TGI (UO-31 renal) [µM] | TGI (SK-MEL-2 melanoma) [µM] | TGI (HL-60(TB) leukemia) [µM] | TGI (SK-MEL-5 melanoma) [µM] | TGI (SW-620 colon) [µM] | TGI (BT-549 breast) [µM] | TGI (HOP-62 NSCLC) [µM] | TGI (LOX IMVI melanoma) [µM] | TGI (HT29 colon) [µM] | TGI (SR leukemia) [µM] |
| --- | --- | --- | --- | --- | --- | --- | --- | --- | --- | --- | --- | --- | --- | --- | --- | --- | --- | --- | --- | --- |
| COC(=O)c1c(C)c2c(c(C)c1C(=O)OC)-c1c(C)ccc3ccc(C)c-2c13 | > 95.7 | > 100 | > 100 | > 69.4 | > 100 | > 100 | > 100 | > 100 | > 87.1 | > 100 | > 100 | > 100 | > 50.7 | 95.8 | > 94.5 | > 100 | > 100 | > 86.5 | 29.6 | 46.9 |
| COc1cc2cc3c4c(cc(OC)c(OC)c4c2cc1OC)CCN3C | 4.1 | 12.9 | 19.8 | > 27.3 | > 23.4 | > 50 | > 50 | > 23.4 | > 31.8 | > 50 | 40.6 | 30 | 18.7 | 16.6 | > 50 | > 23.6 | > 50 | 16.7 | > 37.5 | > 10.8 |
